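All cell lines were grown in 96-well plates and treated with compound for 48 hours. GI50: concentration for 50% inhibition of growth. The concentration for full growth arrest is given as TGI.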
Legend:
Experiment in all cases: NCI anticancer screen, dose series, 48 h
[1] = test system: 786-0 renal
[2] = test system: A498 renal
[3] = test system: A549 NSCLC
[4] = test system: ACHN renal
[5] = test system: BT-549 breast
[6] = test system: CAKI-1 renal
[7] = test system: CCRF-CEM leukemia
[8] = test system: COLO 205 colon
[9] = test system: DU-145 prostate
[10] = test system: EKVX NSCLC
[11] = test system: HCC-2998 colon
[12] = test system: HCT-116 colon
[13] = test system: HCT-15 colon
[14] = test system: HOP-62 NSCLC
[15] = test system: HOP-92 NSCLC
[16] = test system: HS 578T breast
[17] = test system: HT29 colon
[18] = test system: IGROV1 ovarian
[19] = test system: K-562 leukemia
[20] = test system: KM12 colon
[21] = test system: LOX IMVI melanoma
[22] = test system: M14 melanoma
[23] = test system: MALME-3M melanoma
[24] = test system: MCF7 breast
[25] = test system: MDA-MB-231 breast
[26] = test system: MDA-MB-435
[27] = test system: MOLT-4 leukemia
[28] = test system: NCI-H226 lung
[29] = test system: NCI-H23 lung

COc1cc(OC)c(C(=O)/C=C/c2cccc(C(F)(F)F)c2)c(OC)c1
GI50 [1]: 1660 nM
TGI [1]: 5590 nM
GI50 [2]: 1400 nM
TGI [2]: 4440 nM
GI50 [3]: 1480 nM
TGI [3]: 4820 nM
GI50 [4]: 1460 nM
TGI [4]: 5170 nM
GI50 [5]: 1080 nM
TGI [5]: 2840 nM
GI50 [6]: 2170 nM
TGI [6]: 7220 nM
GI50 [7]: 1090 nM
TGI [7]: 3460 nM
GI50 [8]: 1060 nM
TGI [8]: 2210 nM
GI50 [9]: 1730 nM
TGI [9]: 6080 nM
GI50 [10]: 1500 nM
TGI [10]: 4300 nM
GI50 [11]: 2110 nM
TGI [11]: 6890 nM
GI50 [12]: 806 nM
TGI [12]: 1590 nM
GI50 [13]: 942 nM
TGI [13]: 2680 nM
GI50 [14]: 1560 nM
TGI [14]: 5460 nM
GI50 [15]: 1020 nM
TGI [15]: 3580 nM
GI50 [16]: 3930 nM
TGI [16]: 28600 nM
GI50 [17]: 1690 nM
TGI [17]: 4750 nM
GI50 [18]: 1710 nM
TGI [18]: 5600 nM
GI50 [19]: 1260 nM
TGI [19]: 4830 nM
GI50 [20]: 1790 nM
TGI [20]: 6420 nM
GI50 [21]: 1040 nM
TGI [21]: 2420 nM
GI50 [22]: 1060 nM
TGI [22]: 2620 nM
GI50 [23]: 2380 nM
TGI [23]: 8300 nM
GI50 [24]: 1120 nM
TGI [24]: 7380 nM
GI50 [25]: 1760 nM
TGI [25]: 6050 nM
GI50 [26]: 1610 nM
TGI [26]: 6570 nM
GI50 [27]: 873 nM
TGI [27]: 3750 nM
GI50 [28]: 1160 nM
TGI [28]: 3740 nM
GI50 [29]: 1140 nM

— PubChem BioAssay (NCI)
